From the supplement of paper PMC10307832

What was measured:
Test in all cases: relative viability (nuclei count vs DMSO), 5 days (fraction); higher = more cells survive
KN-93 = compound: CN(C/C=C/C1=CC=C(C=C1)Cl)CC2=CC=CC=C2N(CCO)S(=O)(=O)C3=CC=C(C=C3)OC [KN-93]
Outline: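 Lung cancer cell lines received five library-drug doses (not always all listed) spaced by √10, pinned on vehicle-anchored 1536-well plates after an overnight stay at 37 °C. Five days later, with no medium change, nuclei were Hoechst-stained, imaged at 4× and counted with MetaXpress. Viability is treated-well nuclei relative to vehicle-well nuclei, as a median across plates. Passing plates had control CV below 25% and at least one doubling.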

KN-93 + Phenformin = compound: CN(C/C=C/C1=CC=C(C=C1)Cl)CC2=CC=CC=C2N(CCO)S(=O)(=O)C3=CC=C(C=C3)OC [KN-93] + N=C(N)NC(=N)NCCc1ccccc1 [Phenformin] (partner 250 µM)
Outline: (§1)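 Relative viability was taken as the ratio of nuclei in treated wells to nuclei in vehicle wells. Lung cancer cell lines in 1536-well plates received compounds by pin tool one day after seeding, either one drug alone or a fixed anchor-drug dose plus five library-drug doses (not always all listed) in √10 steps. Nuclei were counted on 4× images after 5 days of treatment, and values are medians of duplicate plates.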

KN-93 + Crizotinib = compound: CN(C/C=C/C1=CC=C(C=C1)Cl)CC2=CC=CC=C2N(CCO)S(=O)(=O)C3=CC=C(C=C3)OC [KN-93] + C[C@@H](Oc1cc(-c2cnn(C3CCNCC3)c2)cnc1N)c1c(Cl)ccc(F)c1Cl [Crizotinib] (partner 1 µM)
Outline: as §1

KN-93 + Foretinib = compound: CN(C/C=C/C1=CC=C(C=C1)Cl)CC2=CC=CC=C2N(CCO)S(=O)(=O)C3=CC=C(C=C3)OC [KN-93] + COc1cc2c(Oc3ccc(NC(=O)C4(C(=O)Nc5ccc(F)cc5)CC4)cc3F)ccnc2cc1OCCCN1CCOCC1 [Foretinib] (partner 0.25 µM)
Outline: as §1

KN-93 + Lapatinib = compound: CN(C/C=C/C1=CC=C(C=C1)Cl)CC2=CC=CC=C2N(CCO)S(=O)(=O)C3=CC=C(C=C3)OC [KN-93] + CS(=O)(=O)CCNCc1ccc(-c2ccc3ncnc(Nc4ccc(OCc5cccc(F)c5)c(Cl)c4)c3c2)o1 [Lapatinib] (partner 2 µM)
Outline: as §1

KN-93 + Pictilisib = compound: CN(C/C=C/C1=CC=C(C=C1)Cl)CC2=CC=CC=C2N(CCO)S(=O)(=O)C3=CC=C(C=C3)OC [KN-93] + CS(=O)(=O)N1CCN(Cc2cc3nc(-c4cccc5[nH]ncc45)nc(N4CCOCC4)c3s2)CC1 [Pictilisib] (partner 1 µM)
Outline: as §1

KN-93 + Luminespib = compound: CN(C/C=C/C1=CC=C(C=C1)Cl)CC2=CC=CC=C2N(CCO)S(=O)(=O)C3=CC=C(C=C3)OC [KN-93] + CCNC(=O)c1noc(-c2cc(C(C)C)c(O)cc2O)c1-c1ccc(CN2CCOCC2)cc1 [Luminespib] (partner 0.01 µM)
Outline: as §1

KN-93 + Pemetrexed = compound: CN(C/C=C/C1=CC=C(C=C1)Cl)CC2=CC=CC=C2N(CCO)S(=O)(=O)C3=CC=C(C=C3)OC [KN-93] + Nc1nc2[nH]cc(CCc3ccc(C(=O)N[C@@H](CCC(=O)O)C(=O)O)cc3)c2c(=O)[nH]1 [Pemetrexed] (partner 0.2 µM)
Outline: as §1

KN-93 + OSI-027 = compound: CN(C/C=C/C1=CC=C(C=C1)Cl)CC2=CC=CC=C2N(CCO)S(=O)(=O)C3=CC=C(C=C3)OC [KN-93] + COc1cccc2cc(-c3nc([C@H]4CC[C@H](C(=O)O)CC4)n4ncnc(N)c34)[nH]c12 [OSI-027] (partner 0.5 µM)
Outline: as §1

KN-93 + Alpelisib = compound: CN(C/C=C/C1=CC=C(C=C1)Cl)CC2=CC=CC=C2N(CCO)S(=O)(=O)C3=CC=C(C=C3)OC [KN-93] + Cc1nc(NC(=O)N2CCC[C@H]2C(N)=O)sc1-c1ccnc(C(C)(C)C(F)(F)F)c1 [Alpelisib] (partner 2 µM)
Outline: as §1

KN-93 + Bortezomib = compound: CN(C/C=C/C1=CC=C(C=C1)Cl)CC2=CC=CC=C2N(CCO)S(=O)(=O)C3=CC=C(C=C3)OC [KN-93] + CC(C)C[C@H](NC(=O)[C@H](Cc1ccccc1)NC(=O)c1cnccn1)B(O)O [Bortezomib] (partner 0.002 µM)
Outline: as §1

KN-93 + Dasatinib = compound: CN(C/C=C/C1=CC=C(C=C1)Cl)CC2=CC=CC=C2N(CCO)S(=O)(=O)C3=CC=C(C=C3)OC [KN-93] + Cc1nc(Nc2ncc(C(=O)Nc3c(C)cccc3Cl)s2)cc(N2CCN(CCO)CC2)n1 [Dasatinib] (partner 0.075 µM)
Outline: as §1

KN-93 + Linsitinib = compound: CN(C/C=C/C1=CC=C(C=C1)Cl)CC2=CC=CC=C2N(CCO)S(=O)(=O)C3=CC=C(C=C3)OC [KN-93] + C[C@]1(O)C[C@@H](c2nc(-c3ccc4ccc(-c5ccccc5)nc4c3)c3c(N)nccn32)C1 [Linsitinib] (partner 1 µM)
Outline: as §1

## NCI-H1563
KN-93; 0.08 µM
  relative viability: 0.967
KN-93; 0.253 µM
  relative viability: 0.936
KN-93; 2.53 µM
  relative viability: 0.88
KN-93; 8 µM
  relative viability: 0.758
KN-93 + Phenformin; first compound 0.08 µM
  relative viability: 0.706
KN-93 + Phenformin; first compound 0.253 µM
  relative viability: 0.633
KN-93 + Phenformin; first compound 2.53 µM
  relative viability: 0.647
KN-93 + Phenformin; first compound 8 µM
  relative viability: 0.626
KN-93 + Crizotinib; first compound 0.08 µM
  relative viability: 0.875
KN-93 + Crizotinib; first compound 0.253 µM
  relative viability: 0.845
KN-93 + Crizotinib; first compound 2.53 µM
  relative viability: 0.643
KN-93 + Crizotinib; first compound 8 µM
  relative viability: 0.601
KN-93 + Foretinib; first compound 0.08 µM
  relative viability: 0.918
KN-93 + Foretinib; first compound 0.253 µM
  relative viability: 0.878
KN-93 + Foretinib; first compound 2.53 µM
  relative viability: 0.858
KN-93 + Foretinib; first compound 8 µM
  relative viability: 0.659
KN-93 + Lapatinib; first compound 0.08 µM
  relative viability: 0.946
KN-93 + Lapatinib; first compound 0.253 µM
  relative viability: 1
KN-93 + Lapatinib; first compound 2.53 µM
  relative viability: 0.937
KN-93 + Lapatinib; first compound 8 µM
  relative viability: 0.641
KN-93 + Pictilisib; first compound 0.08 µM
  relative viability: 0.661
KN-93 + Pictilisib; first compound 0.253 µM
  relative viability: 0.618
KN-93 + Pictilisib; first compound 2.53 µM
  relative viability: 0.648
KN-93 + Pictilisib; first compound 8 µM
  relative viability: 0.608
KN-93 + Luminespib; first compound 0.08 µM
  relative viability: 0.625
KN-93 + Luminespib; first compound 0.253 µM
  relative viability: 0.483
KN-93 + Luminespib; first compound 2.53 µM
  relative viability: 0.577
KN-93 + Luminespib; first compound 8 µM
  relative viability: 0.517
KN-93 + Pemetrexed; first compound 0.08 µM
  relative viability: 0.759
KN-93 + Pemetrexed; first compound 0.253 µM
  relative viability: 0.822
KN-93 + Pemetrexed; first compound 2.53 µM
  relative viability: 0.799
KN-93 + Pemetrexed; first compound 8 µM
  relative viability: 0.597
KN-93 + OSI-027; first compound 0.08 µM
  relative viability: 0.841
KN-93 + OSI-027; first compound 0.253 µM
  relative viability: 0.789
KN-93 + OSI-027; first compound 2.53 µM
  relative viability: 0.745
KN-93 + OSI-027; first compound 8 µM
  relative viability: 0.566
KN-93 + Alpelisib; first compound 0.08 µM
  relative viability: 0.922
KN-93 + Alpelisib; first compound 0.253 µM
  relative viability: 0.947
KN-93 + Alpelisib; first compound 2.53 µM
  relative viability: 0.906
KN-93 + Alpelisib; first compound 8 µM
  relative viability: 0.758
KN-93 + Bortezomib; first compound 0.08 µM
  relative viability: 1
KN-93 + Bortezomib; first compound 0.253 µM
  relative viability: 0.884
KN-93 + Bortezomib; first compound 2.53 µM
  relative viability: 0.778
KN-93 + Bortezomib; first compound 8 µM
  relative viability: 0.675
KN-93 + Dasatinib; first compound 0.08 µM
  relative viability: 0.473
KN-93 + Dasatinib; first compound 0.253 µM
  relative viability: 0.415
KN-93 + Dasatinib; first compound 2.53 µM
  relative viability: 0.471
KN-93 + Dasatinib; first compound 8 µM
  relative viability: 0.377
KN-93 + Linsitinib; first compound 0.08 µM
  relative viability: 1.22
KN-93 + Linsitinib; first compound 0.253 µM
  relative viability: 1.2
KN-93 + Linsitinib; first compound 2.53 µM
  relative viability: 1.02
KN-93 + Linsitinib; first compound 8 µM
  relative viability: 0.934
